Reference: PMC5733122, “Purification, Characterization, and Mode of Action of Pentocin JL-1, a Novel Bacteriocin Isolated from Lactobacillus pentosus, against Drug-Resistant Staphylococcus aureus” (BioMed Research International, 2017)

Experiments:
[1] = pH stability, residual antibacterial activity; format: physicochemical; settings: 1 h; for Residual inhibitory activity (inhibition zone diameter, mm): 15 μg/mL in 0.05% acetic acid, agar-well diffusion vs MRSA GIM 1.771, mean ± SD, triplicate; for Residual inhibitory activity (inhibition zone diameter, mm) / Residual inhibitory activity (%): readjusted to pH 5.5; for Residual inhibitory activity (%): 15 μg/mL, vs MRSA GIM 1.771, relative to control pH 5.5
Description: To determine pH stability, lyophilized purified pentocin JL-1 was dissolved in 0.05% (w/v) acetic acid at 15 μg/mL and was adjusted with 1.0 M HCl or 1.0 M NaOH to different pH values of 2.0, 3.0, 4.0, 5.0, 6.0, 7.0, 8.0, 9.0, and 10.0. Then the above samples were incubated at 37°C for 1 h and were adjusted to pH 5.5 with 1.0 M HCl or 1.0 M NaOH.
(§1) The residual antibacterial activities of the above samples were calculated using the agar-well diffusion test with MRSA GIM 1.771 as the indicator strain. […] Lyophilized pentocin JL-1 dissolved in 0.05% (w/v) acetic acid at 15 μg/mL with pH 5.5 was used as a control in all assays.

MRSA GIM 1.771 [2] = assay: Minimal inhibitory concentration (MIC), 96-well microtiter plates; format: cell-based, Staphylococcus aureus; settings: around 2 × 10^6 CFU/mL, 37°C, 24 h, 100% growth inhibition by absorbance at 540 nm, triplicate
Description: Additionally, the minimal inhibitory concentration (MIC) of pentocin JL-1 against MRSA GIM 1.771 was tested. Overnight culture of MRSA GIM 1.771 with the concentration of around 2 × 10^6 CFU/mL was collected and 50 μL of each was grown in 96 well-microtiter plates (Bio-Rad, USA) with different concentrations of pentocin JL-1, ranging from 50 ng/mL to 15 μg/mL, at 37°C for 24 h. Each concentration was done in triplicate. The MIC represents the bacteriocin concentration at which 100% of growth is inhibited measured by the absorbance at 540 nm.

MRSA GIM 1.771 cells = assay: Transmembrane pH gradient (ΔpH), BCECF AM fluorescence; format: cell-based, Staphylococcus aureus; settings: 1x MIC and 2x MIC, compared with 1% Triton X-100, 400 s
Description: ΔpH was monitored by the fluorescent pH probe 2′,7′-bis-(2-carboxyethyl)-5-(and-6)-carboxyfluorescein, acetoxymethyl ester (BCECF AM) (Beyotime, China). MRSA GIM 1.771 cells were grown to the exponential phase in 50 mL TSB culture medium, harvested, washed twice with 50 mL 5 mM HEPES buffer at 4°C, and resuspended in 5 mL of the same buffer for incubation on ice for 1 h. Subsequently, the 1 μM BCECF AM pH probe was added and the solution was incubated at 37°C for 1 h in the dark. Then 1 mL of the incubated solution was added to a fluorescence cuvette together with a final concentration of 1x, 2x, and 3x MIC of pentocin JL-1, respectively. Acetic acid (0.05%, w/v) was used as a negative control and 1% (w/v) Triton X-100 was used as a positive control. To the control, an equivalent volume of 3x MIC of pentocin JL-1 was added. The fluorescence intensity was monitored at 50 s intervals for 400 s immediately after mixing at Ex 488 nm and Em 535 nm using an F-4600 spectrofluorometer (Hitachi, Japan).

MRSA GIM1.771 = assay: Agar-well diffusion test; format: cell-based, Staphylococcus aureus; settings: pH 5.5
Description: The intestinal tracts of C. punctatum (grey carpet shark) were dissected and homogenized in 20 mL saline solution under sterile conditions and were then plated in serial dilutions in deMan, Rogosa, and Sharpe (MRS) medium. The plates were incubated aerobically at 30°C for 24 h. Several colonies were picked at random and incubated again in MRS broth. For screening for bacteriocin-producing strains, the agar-well diffusion test was used to detect antimicrobial activity in cell-free supernatants (filtered through a 0.22 μm Millipore filter) obtained by centrifugation (10,000g, 30 min, 4°C) after 18, 36, 60, and 72 h incubation. The Gram-positive strain MRSA GIM 1.771 and the Gram-negative strain Escherichia coli O157:H7 GIM 1.707 were used as indicator strains. Before the experiments, the indicator strains were grown to 10^6 CFU/mL. Then, 1 mL of the culture was mixed with 100 mL soft agar medium and poured onto individual Petri dishes. Subsequently, 8 mm diameter wells were punched onto the plates, and each well was filled with 100 μL of the cell-free supernatants under sterile conditions. The plates were incubated overnight at their respective optimum temperatures, and the clear zones of inhibition were measured in diameter and indicated the presence of antimicrobial activity. In our study, all bacteria culture media and chemical reagents were supplied by Sigma-Aldrich (USA).
The agar-well diffusion test as described previously was used to detect the antimicrobial activity of the purified pentocin JL-1 (15 μg/mL, pH 5.5). LAB strains were grown in MRS broth at 30°C for 16 h. Other Gram-positive indicator strains were grown in Tryptone Soy Broth (TSB) medium at 37°C and the Gram-negative indicator strains were grown in Luria-Bertani broth medium at 37°C.
as §1

MRSA GIM 1.771 [3] = assay: Growth curve, OD600; format: cell-based, Staphylococcus aureus; settings: 1x MIC added after 6 h (exponential phase), TSB, 37°C, 24 h
Description: The bacteriostatic or bactericidal mode of action of pentocin JL-1 was tested as described previously by Zhu et al. with some modifications. MRSA GIM 1.771 was cultivated to the exponential phase in 100 mL of TSB culture medium. The lyophilized purified pentocin JL-1 dissolved in 0.05% (w/v) acetic acid was added to the cultures at a final concentration of 1x MIC and the same volume of 0.05% (w/v) acetic acid was added to the aforementioned media as a control. Samples were incubated at 37°C and bacterial suspensions were taken each hour for 24 h, and the absorbance was measured at OD600. In addition, the viable cell counts on TSB agar medium after the addition of 1x MIC, 2x MIC, and 3x MIC of pentocin JL-1 were also quantified every 10 min for 1 h.

Which results are given for “VAKVAR [pentocin JL-1, novel bacteriocin produced by Lactobacillus pentosus JL-1, purified by four-step chromatography, molecular mass 2987.23 Da, cationic and hydrophobic peptide]”?
pH range tolerated / stable ([1]; 37°C, no significant differences in antimicrobial activity (p > 0.05)): 5–7; Residual inhibitory activity (inhibition zone diameter, mm) ([1]; pH 2.0, 37°C): 15.7 ± 1.4 mm; Residual inhibitory activity (%) ([1]; pH 2.0, 37°C): 65.69^∗ %; Residual inhibitory activity (inhibition zone diameter, mm) ([1]; pH 3.0, 37°C): 16.2 ± 1.8 mm; Residual inhibitory activity (%) ([1]; pH 3.0, 37°C): 67.78^∗ %; Residual inhibitory activity (inhibition zone diameter, mm) ([1]; pH 4.0, 37°C): 16.8 ± 1.2 mm; Residual inhibitory activity (%) ([1]; pH 4.0, 37°C): 70.29^∗ %; Residual inhibitory activity (inhibition zone diameter, mm) ([1]; pH 5.0, 37°C): 23.9 ± 0.4 mm; Residual inhibitory activity (%) ([1]; pH 5.0, 37°C): 100.00%; Residual inhibitory activity (inhibition zone diameter, mm) ([1]; pH 6.0, 37°C): 23.9 ± 0.8 mm; Residual inhibitory activity (%) ([1]; pH 6.0, 37°C): 100.00%; Residual inhibitory activity (inhibition zone diameter, mm) ([1]; pH 7.0, 37°C): 23.6 ± 0.6 mm; Residual inhibitory activity (%) ([1]; pH 7.0, 37°C): 98.74%; Residual inhibitory activity (inhibition zone diameter, mm) ([1]; pH 8.0, 37°C): 14.6 ± 0.3 mm; Residual inhibitory activity (%) ([1]; pH 8.0, 37°C): 61.09^∗ %; Residual inhibitory activity (inhibition zone diameter, mm) ([1]; pH 9.0, 37°C): 12.9 ± 0.9 mm; Residual inhibitory activity (%) ([1]; pH 9.0, 37°C): 53.97^∗ %; Residual inhibitory activity (inhibition zone diameter, mm) ([1]; pH 10.0, 37°C): 12.5 ± 1.6 mm; Residual inhibitory activity (%) ([1]; pH 10.0, 37°C): 52.30^∗ %; MIC (MRSA GIM 1.771 [2]): 7.5 µg/mL; extent of ΔpH dissipation (MRSA GIM 1.771 cells): incompletely dissipated; Residual inhibitory activity (%) (MRSA GIM1.771; Control: untreated pentocin JL-1 15 μg/mL in 0.05% (w/v) acetic acid): 100.00%; Residual inhibitory activity (inhibition zone diameter, mm) (MRSA GIM1.771; Control: untreated pentocin JL-1 15 μg/mL in 0.05% (w/v) acetic acid, mean ± SD, triplicate): 23.9 ± 0.7 mm; Antimicrobial activity (MRSA GIM1.771; agar-well diffusion, purified pentocin JL-1 15 μg/mL, inhibition zone diameter class incl. 8 mm well): +++ (+++: 20–25); OD600 values after addition (MRSA GIM 1.771 [3]): nearly stable
